Test results taken from ChEMBL document CHEMBL1681741, “SAR studies on dihydropyrimidinone antibiotics” (Bioorg Med Chem Lett, 2011).
In brackets after ≈: the same amount, converted by molar mass.

Tests used:
[1] = tested on: Staphylococcus aureus; experiment: Antimicrobial activity against methicillin-resistant Staphylococcus aureus by NCCLS method; type: functional
[2] = tested on: Escherichia coli; experiment: Inhibition of protein translation in Escherichia coli S30 cell extract; type: functional
[3] = Inhibition of protein translation in rabbit reticulocytes; type: functional, cell-based, Oryctolagus cuniculus
[4] = Selectivity index, ratio of IC50 for protein translation inhibition in Escherichia coli S30 cell extract to IC50 for protein translation inhibition in rabbit reticulocytes; type: functional
[5] = tested on: Staphylococcus aureus; experiment: Antimicrobial activity against methicillin-resistant Staphylococcus aureus in iv dosed mouse septicemia model; type: functional; settings: read-out: PD50
[6] = tested on: Staphylococcus aureus; experiment: Antimicrobial activity against methicillin-resistant Staphylococcus aureus in mouse septicemia model; type: functional

Structure (SMILES)	MIC [1] [µg/mL]	IC50 [2] [µM]	IC50 [3] [µM]	Selectivity ratio [4]	ED50 [5] [mg/kg]	MIC [6] [µg/mL]
CN(C(=O)C[C@H](CCCCN)NC=O)C1CNC(NC(N)=O)=NC1=O (mixture of isomers)	> 500	> 500	> 500			
CN(C(=O)C[C@@H](N)CCCNC(N)=O)C1CNC(NC(N)=O)=NC1=O (mixture of isomers)	> 500	> 500	> 500			
CN(C(=O)C[C@@H](N)CCC(=O)NC(=N)N)C1CNC(NC(N)=O)=NC1=O (mixture of isomers)	> 500	226	7	0.03		
CC(=O)NC(=N)NCCC[C@H](N)CC(=O)N(C)C1CNC(NC(N)=O)=NC1=O (mixture of isomers)	> 256	106				
C/N=C(/NC)NCCC[C@H](N)CC(=O)N(C)C1CNC(NC(N)=O)=NC1=O (mixture of isomers)	256	1.3	26.3	20		
CN(C)C(=N)NCCC[C@H](N)CC(=O)N(C)C1CNC(NC(N)=O)=NC1=O (mixture of isomers)	64	4.2	20.6	4.9		
CN(C(=O)C[C@@H](N)CCCN/C(N)=N\O)C1CNC(NC(N)=O)=NC1=O (mixture of isomers)	64	8.2	23.2	2.8		
CN(C(=O)C[C@@H](N)CCCN1CCNC1=N)C1CNC(NC(N)=O)=NC1=O (mixture of isomers)	128	4.2	35	8.3		
CN(C(=O)C[C@@H](N)c1cccc(NC(=N)N)c1)C1CNC(NC(N)=O)=NC1=O (mixture of isomers)	256	0.15	1.9	10		
CN(C(=O)C[C@@H](N)Cc1ccc(C(=N)N)cc1)C1CNC(NC(N)=O)=NC1=O (mixture of isomers)	512	0.51	12.3	8.2		
CN(C(=O)C[C@@H](N)CC1CCNCC1)C1CNC(NC(N)=O)=NC1=O (mixture of isomers)	64	6.6	6.6	1		
CN(C(=O)C[C@@H](N)CC1CCN(C(=N)N)CC1)C1CNC(NC(N)=O)=NC1=O (mixture of isomers)	16	0.11	0.75	6.8	2.4	16
C/N=C(/N)N1CCC(C[C@H](N)CC(=O)N(C)C2CNC(NC(N)=O)=NC2=O)CC1 (mixture of isomers)	64	3.6	53	14.7		
CN(C(=O)C[C@@H](N)C1CCN(C(=N)N)CC1)C1CNC(NC(N)=O)=NC1=O (mixture of isomers)	16	0.18	0.23	1.3		
CN(C(=O)C[C@@H](N)C[C@H]1CCNC1)C1CNC(NC(N)=O)=NC1=O (mixture of isomers)	64	2	0.6	0.3		
CN(C(=O)C[C@@H](N)C[C@@H]1CCNC1)C1CNC(NC(N)=O)=NC1=O (mixture of isomers)	128	3.9	3.4	0.9		
CN(C(=O)C[C@@H](N)C[C@H]1CCN(C(=N)N)C1)C1CNC(NC(N)=O)=NC1=O (mixture of isomers)	8	0.17	0.45	2.6	1.5	16
C/N=C(/N)NCCC[C@H](N)CC(=O)N(C)C1CN=C(NC(N)=O)NC1=O (mixture of isomers)	8	0.2	1.3	6.5	3.3	32
CN[C@H](CC(C)C)C(=O)N[C@H]1C(=O)N[C@@H](CC(N)=O)C(=O)N[C@H]2C(=O)N[C@H]3C(=O)N[C@H](C(=O)N[C@H](C(=O)O)c4cc(O)cc(O)c4-c4cc3ccc4O)[C@H](O)c3ccc(c(Cl)c3)Oc3cc2cc(c3O[C@@H]2O[C@H](CO)[C@@H](O)[C@H](O)[C@H]2O[C@H]2C[C@](C)(N)[C@H](O)[C@H](C)O2)Oc2ccc(cc2Cl)[C@H]1O [VANCOMYCIN]					9.6	0.8 (≈ 0.552 µM)
